We go through six compounds from ChEMBL document CHEMBL1201862, “PubChem BioAssay data set” (2004).

Some test systems named below: BT-549; COLO 205; EKVX; HCC 2998; HT-29; IGROV-1; K562; KM12; M14; MCF7; MDA-MB-231; MDA-MB-435; MOLT-4; NCI/ADR-RES; SF-268; SK-MEL-28; SK-OV-3; SNB-75; SW-620; UACC-62.
Test in all cases: NCI-60 cell line screen, 48 h

Structures are written as SMILES.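 Step 1: Grow cells in 96-well plates. Step 2: Expose to compound for 48 hours at 5 concentrations. Step 3: Interpolate endpoints linearly; if unreached, use highest concentration. GI50 marks 50% less growth.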 The source made the active and inactive calls. No stated cut-off is given here; in the data, active = GI50 up to about 1.1 µM and inactive = higher.

Take `O=C(CC1C=CCS1(=O)=O)NCc1ccccc1` (stereo not given): the GI50 with BT-549, with COLO 205, in the assay on EKVX, in the assay on HCC 2998, with HT-29 and in the assay with IGROV-1 was > 100 µM (inactive) each time. Moreover, the GI50 in the assay on K562, in the assay on KM12, with M14, in the assay with MCF7, with MDA-MB-231 and in the assay on MDA-MB-435 was > 100 µM (inactive) each time. For the same compound, the GI50 in the assay on MOLT-4, with NCI/ADR-RES, with SF-268, with SK-MEL-28, in the assay on SK-OV-3 and in the assay on SNB-75 was > 100 µM (inactive) in each case. Further, the GI50 in the assay on SW-620 and in the assay with UACC-62 was > 100 µM (inactive) each time.

`O=C1/C(=C/c2ccc(O)cc2)CCC1CNc1ccc(Cl)cc1` (stereo not given): the GI50 in the assay with BT-549 is 12.6 µM (inactive); in the assay with COLO 205, 1.19 µM (inactive); with EKVX it was 6.61 µM (inactive); in the assay on HCC 2998, 3.93 µM (inactive); in the assay with HT-29, 1.53 µM (inactive); in the assay on IGROV-1 it was 3.21 µM (inactive). Also, the GI50 with K562 is 0.25 µM (active); in the assay on KM12, 0.895 µM (active); in the assay with M14, 0.643 µM (active); in the assay on MCF7, 1.34 µM (inactive); in the assay with MDA-MB-231, 3.04 µM (inactive); in the assay on MDA-MB-435 it was 3.61 µM (inactive). Besides, the GI50 was 1.71 µM (inactive) in the assay with MOLT-4; 5.45 µM (inactive) in the assay with NCI/ADR-RES; 3.2 µM (inactive) in the assay on SF-268; 9.95 µM (inactive) in the assay with SK-MEL-28; 5.14 µM (inactive) in the assay with SK-OV-3; 15.6 µM (inactive) in the assay on SNB-75. Further, the GI50 is 1.37 µM (inactive) in the assay with SW-620 and 0.367 µM (active) in the assay on UACC-62.

`NCC(O)CNC(=O)c1ccc(-c2ccc(-c3ccc(C(=O)NCC(O)CN)cc3)o2)cc1` (stereo not given): the GI50 is 32.7 µM (inactive) with BT-549; 81.8 µM (inactive) with COLO 205; 27.7 µM (inactive) with EKVX; 25.1 µM (inactive) in the assay on HCC 2998; > 100 µM (inactive) with HT-29; 30.8 µM (inactive) with IGROV-1. Also, the GI50 was > 100 µM (inactive) with K562; 51.2 µM (inactive) in the assay with KM12; > 100 µM (inactive) in the assay with M14; 32.8 µM (inactive) in the assay with MCF7; 24.5 µM (inactive) with MDA-MB-231; > 100 µM (inactive) in the assay with MDA-MB-435. Moreover, the GI50 was > 100 µM (inactive) in the assay with MOLT-4; > 100 µM (inactive) in the assay with NCI/ADR-RES; 28.2 µM (inactive) with SF-268; > 100 µM (inactive) with SK-MEL-28; 23.9 µM (inactive) in the assay with SK-OV-3; 25.8 µM (inactive) in the assay with SNB-75. Moreover, the results for the GI50 with SW-620 and in the assay on UACC-62 were > 100 µM (inactive) and 41.8 µM (inactive), respectively.

With `CC(=O)c1ccccc1NCC(=O)Nn1cnc2ccc(S(=O)(=O)Nc3ccccc3C(C)=O)cc2c1=O`, the GI50 in the assay with BT-549 is > 100 µM (inactive); with COLO 205, > 100 µM (inactive); in the assay on EKVX, > 100 µM (inactive); in the assay on HCC 2998 it was > 100 µM (inactive); with HT-29, > 100 µM (inactive); with IGROV-1, 2.53 µM (inactive). Besides, the GI50 in the assay on K562, with KM12, in the assay with M14, with MCF7, in the assay on MDA-MB-231 and in the assay on MDA-MB-435 was > 100 µM (inactive) in each case. The GI50 in the assay on MOLT-4, in the assay on NCI/ADR-RES, in the assay on SF-268, in the assay on SK-MEL-28, with SK-OV-3 and in the assay with SNB-75 was > 100 µM (inactive) each time. Further, the GI50 with SW-620 and with UACC-62 was > 100 µM (inactive) in each case.

`CCOP(=O)(OCC)C(C)(CC)NC` (stereo not given): the GI50 in the assay on BT-549, in the assay on COLO 205, in the assay with EKVX, in the assay on HCC 2998, in the assay on HT-29 and in the assay on IGROV-1 was > 100 µM (inactive) in each case. The GI50 in the assay with K562, in the assay on KM12, in the assay on M14, with MCF7, in the assay with MDA-MB-231 and with MDA-MB-435 was > 100 µM (inactive) throughout. The GI50 with MOLT-4, in the assay on NCI/ADR-RES, in the assay with SF-268, in the assay with SK-MEL-28, in the assay with SK-OV-3 and with SNB-75 was > 100 µM (inactive) in each case. Further, the GI50 in the assay with SW-620 and in the assay on UACC-62 was > 100 µM (inactive) in each case.

Turning to `CCCCCc1cc2cc3c(c(O)c2c(=O)[nH]1)C1(CCC3)C(=O)c2c(O)c3c(c(O)c2C1=O)C(=O)C(OC)=CC3=O` (stereo not given), the GI50 is 0.703 µM (active) in the assay on BT-549; 0.276 µM (active) in the assay with COLO 205; 0.361 µM (active) with EKVX; 2.05 µM (inactive) in the assay with HCC 2998; 0.748 µM (active) in the assay with HT-29; 1.03 µM (active) with IGROV-1. The GI50 is 0.42 µM (active) in the assay on K562; 1.85 µM (inactive) in the assay on KM12; 0.908 µM (active) with M14; 0.317 µM (active) in the assay with MCF7; 0.792 µM (active) with MDA-MB-231; 0.908 µM (active) in the assay with MDA-MB-435. For the same compound, the GI50 was 0.582 µM (active) in the assay on MOLT-4; 4.56 µM (inactive) in the assay with NCI/ADR-RES; 0.807 µM (active) in the assay on SF-268; 1.29 µM (inactive) in the assay on SK-MEL-28; 2.24 µM (inactive) in the assay with SK-OV-3; 0.906 µM (active) with SNB-75. Besides, the GI50 with SW-620 was 0.681 µM (active); in the assay on UACC-62, 0.916 µM (active).
